The text below walks through data of the supplement of paper PMC10307832.

Experiment in all cases: relative viability (nuclei count vs DMSO), 5 days (fraction); higher = more cells survive
Compound in the test “Linsitinib + Trametinib”: C[C@]1(O)C[C@@H](c2nc(-c3ccc4ccc(-c5ccccc5)nc4c3)c3c(N)nccn32)C1 [Linsitinib] + CC(=O)Nc1cccc(-n2c(=O)n(C3CC3)c(=O)c3c(Nc4ccc(I)cc4F)n(C)c(=O)c(C)c32)c1 [Trametinib] (partner 0.02 µM)
The gist of the method:
(§1)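 After 5 days of treatment, lung cancer cells in 1536-well plates were fixed and stained in a single step (final 0.05% Triton X-100, 1% formaldehyde, 1 ug/ml Hoechst) and their nuclei counted on 4× images. Treatment had been applied by pin tool the day after seeding as one drug alone or as a fixed anchor-drug dose with five library-drug doses (not always all listed) in √10 steps. Relative viability is the nuclei count of treated wells divided by that of vehicle wells, and values are medians of duplicate plates.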

Compound in the test “Linsitinib + AZD7762”: C[C@]1(O)C[C@@H](c2nc(-c3ccc4ccc(-c5ccccc5)nc4c3)c3c(N)nccn32)C1 [Linsitinib] + NC(=O)Nc1cc(-c2cccc(F)c2)sc1C(=O)N[C@H]1CCCNC1 [AZD7762] (partner 0.2 µM)
The method in brief:
as §1

Compound in the test “Linsitinib + Vorinostat”: C[C@]1(O)C[C@@H](c2nc(-c3ccc4ccc(-c5ccccc5)nc4c3)c3c(N)nccn32)C1 [Linsitinib] + O=C(CCCCCCC(=O)Nc1ccccc1)NO [Vorinostat] (partner 1 µM)
The method in brief:
as §1

Compound in the test “Ispinesib + Tozasertib”: Cc1ccc(C(=O)N(CCCN)[C@@H](c2nc3cc(Cl)ccc3c(=O)n2Cc2ccccc2)C(C)C)cc1 [Ispinesib] + Cc1cc(Nc2cc(N3CCN(C)CC3)nc(Sc3ccc(NC(=O)C4CC4)cc3)n2)n[nH]1 [Tozasertib] (partner 0.1 µM)
The gist of the method:
as §1

Regarding NCI-H460, the relative viability turned out to be 0.136 with Linsitinib + Trametinib (first compound 0.01 µM); 0.137 in the test with Linsitinib + Trametinib (first compound 0.03162 µM); 0.196 with Linsitinib + Trametinib (first compound 0.1 µM); 0.0792 in the test with Linsitinib + Trametinib (first compound 1 µM); 0.566 in the test with Linsitinib + AZD7762 (first compound 0.01 µM); 0.614 in the test with Linsitinib + AZD7762 (first compound 0.03162 µM). Also, the relative viability was determined as 0.698 with Linsitinib + AZD7762 (first compound 0.1 µM); 0.398 with Linsitinib + AZD7762 (first compound 1 µM); 0.694 in the test with Linsitinib + Vorinostat (first compound 0.01 µM); 0.644 with Linsitinib + Vorinostat (first compound 0.03162 µM); 0.692 with Linsitinib + Vorinostat (first compound 0.1 µM); 0.601 with Linsitinib + Vorinostat (first compound 1 µM). Moreover, the relative viability came to 0.4 with Ispinesib + Tozasertib (first compound 0.001 µM); 0.577 in the test with Ispinesib + Tozasertib (first compound 0.003162 µM); 0.503 with Ispinesib + Tozasertib (first compound 0.01 µM); 0.417 with Ispinesib + Tozasertib (first compound 0.03162 µM); 0.0671 with Ispinesib + Tozasertib (first compound 0.1 µM).
Regarding NCI-H522, the relative viability in the test with Linsitinib + Trametinib (first compound 0.01 µM) amounted to 0.918; with Linsitinib + Trametinib (first compound 0.03162 µM), 0.784; in the test with Linsitinib + Trametinib (first compound 0.1 µM), 0.714; with Linsitinib + Trametinib (first compound 0.3162 µM), 0.613; in the test with Linsitinib + Trametinib (first compound 1 µM), 0.582; with Linsitinib + AZD7762 (first compound 0.01 µM), 0.771. The relative viability in the test with Linsitinib + AZD7762 (first compound 0.03162 µM) was 0.958; with Linsitinib + AZD7762 (first compound 0.1 µM) it was 1.09; with Linsitinib + AZD7762 (first compound 0.3162 µM), 0.654; in the test with Linsitinib + AZD7762 (first compound 1 µM), 0.612; with Linsitinib + Vorinostat (first compound 0.01 µM), 0.892; with Linsitinib + Vorinostat (first compound 0.03162 µM), 1. Further, the relative viability worked out at 0.791 with Linsitinib + Vorinostat (first compound 0.1 µM); 0.499 with Linsitinib + Vorinostat (first compound 0.3162 µM); 0.727 in the test with Linsitinib + Vorinostat (first compound 1 µM); 0.562 in the test with Ispinesib + Tozasertib (first compound 0.001 µM); 0.508 with Ispinesib + Tozasertib (first compound 0.003162 µM); 0.542 with Ispinesib + Tozasertib (first compound 0.01 µM). For the same cell line, the relative viability with Ispinesib + Tozasertib (first compound 0.03162 µM) turned out to be 0.557; in the test with Ispinesib + Tozasertib (first compound 0.1 µM), 0.702.
For the cell line NCI-H596, the relative viability with Linsitinib + Trametinib (first compound 0.01 µM) turned out to be 0.705; with Linsitinib + Trametinib (first compound 0.03162 µM), 0.715; with Linsitinib + Trametinib (first compound 0.1 µM), 0.74; in the test with Linsitinib + Trametinib (first compound 0.3162 µM) it was 0.827; in the test with Linsitinib + Trametinib (first compound 1 µM) it was 0.732; in the test with Linsitinib + AZD7762 (first compound 0.01 µM), 1.19. The relative viability came out at 1.06 with Linsitinib + AZD7762 (first compound 0.03162 µM); 1 with Linsitinib + AZD7762 (first compound 0.1 µM); 1.14 with Linsitinib + AZD7762 (first compound 0.3162 µM); 0.92 with Linsitinib + AZD7762 (first compound 1 µM); 0.583 with Linsitinib + Vorinostat (first compound 0.01 µM); 0.584 with Linsitinib + Vorinostat (first compound 0.03162 µM). Also, the relative viability with Linsitinib + Vorinostat (first compound 0.1 µM) is 0.597; with Linsitinib + Vorinostat (first compound 0.3162 µM), 0.49; with Linsitinib + Vorinostat (first compound 1 µM) it was 0.593; in the test with Ispinesib + Tozasertib (first compound 0.001 µM), 0.956; with Ispinesib + Tozasertib (first compound 0.003162 µM), 0.86; in the test with Ispinesib + Tozasertib (first compound 0.01 µM) it was 0.916. The relative viability is 0.945 in the test with Ispinesib + Tozasertib (first compound 0.03162 µM) and 0.432 with Ispinesib + Tozasertib (first compound 0.1 µM).
As for NCI-H647, the relative viability with Linsitinib + Trametinib (first compound 0.01 µM) is 0.478; with Linsitinib + Trametinib (first compound 0.03162 µM) it was 0.509; in the test with Linsitinib + Trametinib (first compound 0.1 µM), 0.436; in the test with Linsitinib + Trametinib (first compound 0.3162 µM), 0.338; with Linsitinib + Trametinib (first compound 1 µM) it was 0.351; in the test with Linsitinib + AZD7762 (first compound 0.01 µM), 0.467. Besides, the relative viability with Linsitinib + AZD7762 (first compound 0.03162 µM) came to 0.504; in the test with Linsitinib + AZD7762 (first compound 0.1 µM), 0.493; with Linsitinib + AZD7762 (first compound 0.3162 µM) it was 0.212; with Linsitinib + AZD7762 (first compound 1 µM), 0.331; in the test with Linsitinib + Vorinostat (first compound 0.01 µM), 0.57; with Linsitinib + Vorinostat (first compound 0.03162 µM), 0.583. In addition, the relative viability with Linsitinib + Vorinostat (first compound 0.1 µM) was 0.458; with Linsitinib + Vorinostat (first compound 0.3162 µM), 0.368; with Linsitinib + Vorinostat (first compound 1 µM), 0.646; with Ispinesib + Tozasertib (first compound 0.001 µM), 0.323; with Ispinesib + Tozasertib (first compound 0.003162 µM), 0.201; with Ispinesib + Tozasertib (first compound 0.01 µM) it was 0.0519. In addition, the relative viability stood at 0.217 with Ispinesib + Tozasertib (first compound 0.03162 µM) and 0.303 with Ispinesib + Tozasertib (first compound 0.1 µM).
